# Test results from PMC1247661 (Environmental Health Perspectives, 2004).
# Tests used:
# hepatic gene expression [1] = test: Real-time RT-PCR of hepatic mRNA after 13-week exposure: TCDD 100, PeCDF 200, PCB126 1,000 ng/kg/day, PCB153 1,000 μg/kg/day; format: in vivo, female Harlan Sprague-Dawley rats; conditions: liver, 13 weeks; average (± 1 SD) of three RNA pools; normalized to 18S RNA
# Method: Tissues for this study were provided by the NTP ([NTP 2004a], [2004b], [2004c]) as part of a 2-year bioassay for relative carcinogenic potencies of dioxin-like chemicals. […] Toxicologic dose equivalence was based on the current World Health Organization TEF recommendations ([Van den Berg et al. 1998]). Subgroups of rats were sacrificed at 14, 31, and 53 weeks (corresponding to 13, 30, or 52 weeks of exposure), and target organs were removed, flash frozen in liquid nitrogen, and stored at −70°C for mechanistic studies.
# Frozen hepatic tissue was disrupted by homogenization with a rotor stator homogenizer, and total RNA was isolated with Qiagen RNeasy columns Qiagen Inc., Valencia, CA). There were a total of six rats in each exposure group. Three pools of RNA were created from each exposure group (n = 2 rats per pool), similar to the experimental design of [Yechoor et al. (2002)]. Pooled total RNA was further purified using the Qiagen poly(A) RNA isolation kit. RNA integrity was assessed by the Agilent Bioanalyzer 2100 (Agilent Technologies, Palo Alto, CA). […] Poly(A) RNA was transformed into labeled cRNA by the Roswell Park Cancer Institute Microarray and Genomics Core Facility (Buffalo, NY). cRNA from each pool was fragmented and its quality evaluated with Affymetrix GeneChip Test3 arrays (Santa Clara, CA) by comparing 3′:5′ signal ratios of housekeeping genes. High-quality cRNA (3′:5′ signal ratio near 1) was subsequently hybridized to Affymetrix RGU34A GeneChips, and chips were scanned with the Affymetrix 428 scanner.
# Reverse transcriptase reactions (80 μL) contained 20 μg total RNA, 0.5 mM dNTP mix, and 15 ng/μL random primers, 1 × first-strand buffer, 10 mM dithiothreitol, 27 U Rnasin RNase inhibitor (Promega, Madison, WI), and 800 U superscript reverse transcriptase (Invitrogen). A mixture containing total RNA, dNTPs, and random primers was heated to 65°C for 5 min to denature the RNA and then immediately placed on ice. The remaining components of the reaction mixture were then added to the RNA, and cDNA synthesis was performed at 42°C for 60 min. Reactions were terminated by heating to 70°C for 10 min.
# PCR primers were selected from GenBank database sequences with Primer3 software ([Rozen and Skaletsky 2000]). […] Nonspecific mispriming was managed by a mispriming threshold of 10.0 in the rodent mispriming library.
# Real-time PCR was performed with the SYBR Green PCR kit from Applied Biosystems (Foster City, CA) according to the manufacturer’s instructions. PCR reactions (25 μL) contained diluted cDNA, 1 × SYBR Green buffer, 3 mM MgCl2, 0.2 mM dNTP mix, 0.2 μM left and right primers, 10 nM fluorescein, and 1.1 U of Amplitaq Gold polymerase. The reaction was initiated by incubation at 95°C for 10 min and followed by 40 cycles of denaturation at 95°C for 15 sec and primer annealing/extension at 60°C for 1 min. Sample fluorescence was evaluated during the annealing/extension step. Upon completion of thermocycling, the specificity of each reaction was evaluated by melting analysis. Samples were heated to 95°C for 2 min and cooled to 55°C. The temperature was maintained at 55°C for 15 sec to analyze sample fluorescence, and the temperature was increased by increments of 0.5°C followed by 15 sec of fluorescence analysis for a total of 80 cycles.
# The efficiency of each primer set was validated over a range of cDNA concentrations. […] After primer validation, PCR reactions were performed with a single cDNA concentration, and the threshold cycle (Ct) was determined for each reaction. The difference (ΔCt) between the threshold cycle for the target gene and endogenous control gene (18S RNA) was calculated for each sample, and the 18S normalized relative expression of each gene was calculated by the comparative method according to the Applied Biosystems’ User Bulletin No. 2 for the ABI Prism Sequence Detection System (Applied Biosystems), as described by [Imasato et al. (2002)].
# hepatic gene expression [2] = conditions: liver, 13 weeks; average (± 1 SD) of three GeneChips
# [3] = 13 weeks; mean ±SD of 10 rats; TCDD 100, PeCDF 200, PCB126 1,000 ng/kg/day, PCB153 1,000 μg/kg/day; ref NTP 2004a, 2004b, 2004c; cited from earlier work
# liver [4] = conditions: 13 weeks, ref NTP 2004a, 2004b, 2004c, cited from earlier work; for Liver hypertrophy, incidence (number of rats of 10): TCDD 100, PeCDF 200, PCB126 1,000 ng/kg/day, PCB153 1,000 μg/kg/day; for Liver hypertrophy, severity in words: highest dose of each compound; for Liver hypertrophy, mean severity score: 1, minimal, 2, mild, 3, moderate, 4, marked
# liver [5] = conditions: TCDD 100, PeCDF 200, PCB126 1,000 ng/kg/day, ref NTP 2004a, 2004b, 2004c; cited from earlier work
# [6] = same doses, 1, minimal to 4, marked
SMILES,"C-CAM4 mRNA, average change vs vehicle, RT-PCR (hepatic gene expression [1])","CAP2 mRNA, average change vs vehicle, RT-PCR (hepatic gene expression [1])","CES3 mRNA, average change vs vehicle, RT-PCR (hepatic gene expression [1])","CYP1B1 mRNA, average change vs vehicle, RT-PCR (hepatic gene expression [1])","CYP3A9 mRNA, average change vs vehicle, RT-PCR (hepatic gene expression [1])","SERPIN7A mRNA, average change vs vehicle, RT-PCR (hepatic gene expression [1])","SST mRNA, average change vs vehicle, RT-PCR (hepatic gene expression [1])","C-CAM4 mRNA, average change vs vehicle, Microarray (hepatic gene expression [2])","CAP2 mRNA, average change vs vehicle, Microarray (hepatic gene expression [2])","CES3 mRNA, average change vs vehicle, Microarray (hepatic gene expression [2])","CYP1B1 mRNA, average change vs vehicle, Microarray (hepatic gene expression [2])","SERPIN7A mRNA, average change vs vehicle, Microarray (hepatic gene expression [2])","SST mRNA, average change vs vehicle, Microarray (hepatic gene expression [2])",Liver levels [3],"Liver hypertrophy, incidence (number of rats of 10) (liver [4])","Liver hypertrophy, severity in words (liver [4])","Liver hypertrophy, mean severity score (liver [4]; same doses)","Diffuse fatty change, incidence (number of rats of 10) (liver [4]; same doses)","Multinucleated hepatocytes, incidence (number of rats of 10) (liver [4]; same doses)","Pigmentation, incidence (number of rats of 10) (liver [4]; same doses)",other results
"Clc1ccc(-c2cc(Cl)c(Cl)c(Cl)c2)cc1Cl [PCB126, 3,3′,4,4′,5-pentachlorobiphenyl]",3.5 (2.6 to 4.7),119.4 (104 to 137.2),−1.4 (−1.5 to −1.3),106.4 (98.2 to 115.3),−28.5 (−30.2 to −26.9),−8.4 (−12 to −5.9),−1.5 (−1.6 to −1.4),25.1 (4 to 46.2),7.6 (2 to 13.2),−4 (−4.4 to −3.6),317.1 (41.1 to 593.1),−4 (−4.9 to −3.1),−6.4 (−9.4 to −3.4),412.6 ± 73.5 ng/g,10,minimal to mild,1.7,0,0,0,"liver findings after 2 years of exposure (liver [5]): cholangiocarcinoma, hepatocellular adenoma, toxic hepatopathy, multinucleated hepatocytes, diffuse fatty change, and liver pigmentation"
"Clc1cc(Cl)c(-c2cc(Cl)c(Cl)cc2Cl)cc1Cl [PCB153, 2,2′,4,4′,5,5′-hexachlorobiphenyl]",−1.1 (−1.3 to 1),−1.3 (−1.5 to −1.1),2.4 (2.1 to 2.6),−1.2 (−1.6 to 1),−1.8 (−2.1 to −1.5),−1.2 (−1.5 to 1),−3 (−3.5 to −2.5),,,1.3 (1 to 1.6),2.1 (1 to 3.2),1.6 (1.3 to 1.9),−9.5 (−10.1 to −8.9),"9,250 ± 2,061 ng/g",9,minimal,1.2,0,0,0,"CYP3A9 mRNA, average change vs vehicle, Microarray (hepatic gene expression [2]): 1.6 (0.8 to 2.4)"
"Clc1cc2oc3c(Cl)c(Cl)c(Cl)cc3c2cc1Cl [PeCDF, 2,3,4,7,8-pentachlorodibenzofuran]",2.5 (2.3 to 2.7),20.2 (17.8 to 22.9),,59.7 (48.3 to 73.8),−4.2 (−5 to −3.5),−29.9 (−32 to −27.9),−1.6 (−2 to −1.2),37.4 (25.5 to 49.3),10.9 (4 to 17.8),−2.8 (−3.8 to −1.8),493.3 (310.1 to 676.5),−2.7 (−3.6 to −1.8),−8.3 (−11.1 to −5.5),132.9 ± 47.4 ng/g,,,,,0,,"CYP3A9 mRNA, average change vs vehicle, Microarray (hepatic gene expression [2]): −2.3 (−3.3 to −1.3)"
"Clc1cc2c(cc1Cl)Oc1cc(Cl)c(Cl)cc1O2 [TCDD, 2,3,7,8-tetrachlorodibenzo-p-dioxin]",4.1 (3.8 to 4.4),168.9 (147.9 to 192.9),−4.8 (−5.2 to −4.4),256 (236.3 to 277.3),−1024 (−1201.8 to −872.5),−26.6 (−30.2 to −23.4),−36.8 (−46.4 to −29.1),133.4 (112.1 to 154.7),53.6 (31.1 to 76.1),−8.1 (−9.9 to −6.3),676.3 (470.8 to 881.8),−11.5 (−17.2 to −5.8),−8 (−10.5 to −5.5),18.3 ± 0.8 ng/g,10,mild to moderate,2.3,2,3,0,"CYP3A9 mRNA, average change vs vehicle, Microarray (hepatic gene expression [2]): −35.4 (−53.4 to −17.4); Diffuse fatty change, mean severity score (liver [4]; [6]): 1.0; Multinucleated hepatocytes, mean severity score (liver [4]; [6]): 1.0; liver findings after 2 years of exposure (liver [5]): cholangiocarcinoma, hepatocellular adenoma, toxic hepatopathy, multinucleated hepatocytes, diffuse fatty change, and liver pigmentation"
